From ChEMBL document CHEMBL3885881, “DrugMatrix”

Species: Rattus norvegicus
Test: DrugMatrix - Regimen: Daily Repeat
Format: toxicity, organism-based, Sprague-Dawley
Parameters: regimen Daily Repeat, gender Male, age 6-8 weeks
Conditions: in vivo, po, route oral GAVAGE, […]; for ABSOLUTE BASOPHIL / BASOPHIL / ABSOLUTE EOSINOPHIL / ABSOLUTE LYMPHOCYTE / ABSOLUTE MONOCYTE / ABSOLUTE SEGMENTED NEUTROPHIL / EOSINOPHIL / ERYTHROCYTE COUNT / HEMATOCRIT / HEMOGLOBIN / LEUKOCYTE COUNT / LYMPHOCYTE / MEAN CORPUSCULAR HEMOGLOBIN / MEAN CORPUSCULAR HEMOGLOBIN CONCENTRATION / MEAN CORPUSCULAR VOLUME / MONOCYTE / NEUTROPHIL / NUCLEATED RED BLOOD CELLS / PLATELET COUNT: tissue Blood; for ALANINE AMINOTRANSFERASE / ALBUMIN / ALKALINE PHOSPHATASE / ASPARTATE AMINOTRANSFERASE / BLOOD UREA NITROGEN / CARBON DIOXIDE / CHLORIDE / CHOLESTEROL / CREATINE PHOSPHOKINASE / CREATININE / GLUCOSE / LACTATE DEHYDROGENASE / LIPASE / PHOSPHORUS / SODIUM / TOTAL BILIRUBIN / TOTAL PROTEIN / URIC ACID: tissue Plasma
[1] = 0 mg/kg, 72 h, dose level Control, time 3 day
[2] = 0 mg/kg, 120 h, dose level Control, time 5 day
[3] = 12 mg/kg, 72 h, dose level Low, time 3 day
[4] = 12 mg/kg, 120 h, dose level Low, time 5 day
[5] = 24 mg/kg, 72 h, dose level M1, time 3 day
[6] = 24 mg/kg, 120 h, dose level M1, time 5 day

Nc1nc2nc[nH]c2c(=S)[nH]1 [THIOGUANINE]
ABSOLUTE BASOPHIL [1]: 0 CELLS/uL
BASOPHIL [1]: 0%
ABSOLUTE BASOPHIL [2]: 0 CELLS/uL
BASOPHIL [2]: 0%
ABSOLUTE BASOPHIL [3]: 0 CELLS/uL
ABSOLUTE EOSINOPHIL [3]: 0 CELLS/uL
ABSOLUTE LYMPHOCYTE [3]: 1995.33 CELLS/uL
ABSOLUTE MONOCYTE [3]: 24.33 CELLS/uL
ABSOLUTE SEGMENTED NEUTROPHIL [3]: 1147 CELLS/uL
BASOPHIL [3]: 0%
EOSINOPHIL [3]: 0%
ERYTHROCYTE COUNT [3]: 5.75 x10E6/uL
HEMATOCRIT [3]: 36.93%
HEMOGLOBIN [3]: 14.27 G/DL
LEUKOCYTE COUNT [3]: 3.17 x10E3/uL
LYMPHOCYTE [3]: 50.67%
MEAN CORPUSCULAR HEMOGLOBIN [3]: 24.87 pg
MEAN CORPUSCULAR HEMOGLOBIN CONCENTRATION [3]: 38.6 G/DL
MEAN CORPUSCULAR VOLUME [3]: 64.37 fL
MONOCYTE [3]: 0.67%
NEUTROPHIL [3]: 48.67%
NUCLEATED RED BLOOD CELLS [3]: 0 /100WBC
PLATELET COUNT [3]: 1202 x10E3/uL
ALANINE AMINOTRANSFERASE [3]: 56.33 u/L
ALBUMIN [3]: 4.67 G/DL
ALKALINE PHOSPHATASE [3]: 631.67 u/L
ASPARTATE AMINOTRANSFERASE [3]: 116 u/L
BLOOD UREA NITROGEN [3]: 14.67 mg/dL
CARBON DIOXIDE [3]: 23 mmol/L
CHLORIDE [3]: 98.67 MEQ/L
CHOLESTEROL [3]: 58 mg/dL
CREATINE PHOSPHOKINASE [3]: 539.33 u/L
CREATININE [3]: 0.12 mg/dL
GLUCOSE [3]: 318 mg/dL
LACTATE DEHYDROGENASE [3]: 172 u/L
LIPASE [3]: 11.33 u/L
PHOSPHORUS [3]: 9.8 mg/dL
SODIUM [3]: 141.63 MEQ/L
TOTAL BILIRUBIN [3]: 0.17 mg/dL
TOTAL PROTEIN [3]: 6.73 G/DL
URIC ACID [3]: 1.43 mg/dL
ABSOLUTE BASOPHIL [4]: 0 CELLS/uL
ABSOLUTE EOSINOPHIL [4]: 52 CELLS/uL
ABSOLUTE LYMPHOCYTE [4]: 778 CELLS/uL
ABSOLUTE MONOCYTE [4]: 212 CELLS/uL
ABSOLUTE SEGMENTED NEUTROPHIL [4]: 8758 CELLS/uL
BASOPHIL [4]: 0%
EOSINOPHIL [4]: 0.67%
ERYTHROCYTE COUNT [4]: 4.29 x10E6/uL
HEMATOCRIT [4]: 27.5%
HEMOGLOBIN [4]: 11 G/DL
LEUKOCYTE COUNT [4]: 9.8 x10E3/uL
LYMPHOCYTE [4]: 8.33%
MEAN CORPUSCULAR HEMOGLOBIN [4]: 25.97 pg
MEAN CORPUSCULAR HEMOGLOBIN CONCENTRATION [4]: 40.5 G/DL
MEAN CORPUSCULAR VOLUME [4]: 64.23 fL
MONOCYTE [4]: 2%
NEUTROPHIL [4]: 89%
NUCLEATED RED BLOOD CELLS [4]: 0 /100WBC
PLATELET COUNT [4]: 1171.33 x10E3/uL
ALANINE AMINOTRANSFERASE [4]: 335.67 u/L
ALBUMIN [4]: 4.13 G/DL
ALKALINE PHOSPHATASE [4]: 261.67 u/L
ASPARTATE AMINOTRANSFERASE [4]: 551.67 u/L
BLOOD UREA NITROGEN [4]: 16.67 mg/dL
CARBON DIOXIDE [4]: 17.67 mmol/L
CHLORIDE [4]: 101 MEQ/L
CHOLESTEROL [4]: 60.33 mg/dL
CREATINE PHOSPHOKINASE [4]: 1296 u/L
CREATININE [4]: 0.11 mg/dL
GLUCOSE [4]: 204.67 mg/dL
LACTATE DEHYDROGENASE [4]: 625 u/L
LIPASE [4]: 9.67 u/L
PHOSPHORUS [4]: 13.37 mg/dL
SODIUM [4]: 141.53 MEQ/L
TOTAL BILIRUBIN [4]: 0.23 mg/dL
TOTAL PROTEIN [4]: 6.1 G/DL
URIC ACID [4]: 2.83 mg/dL
ABSOLUTE BASOPHIL [5]: 0 CELLS/uL
ABSOLUTE EOSINOPHIL [5]: 0 CELLS/uL
ABSOLUTE MONOCYTE [5]: 0 CELLS/uL
BASOPHIL [5]: 0%
EOSINOPHIL [5]: 0%
MONOCYTE [5]: 0%
ABSOLUTE BASOPHIL [6]: 0 CELLS/uL
ABSOLUTE EOSINOPHIL [6]: 46.33 CELLS/uL
ABSOLUTE LYMPHOCYTE [6]: 7006.33 CELLS/uL
ABSOLUTE MONOCYTE [6]: 30 CELLS/uL
ABSOLUTE SEGMENTED NEUTROPHIL [6]: 550.67 CELLS/uL
BASOPHIL [6]: 0%
EOSINOPHIL [6]: 0.67%
ERYTHROCYTE COUNT [6]: 5.49 x10E6/uL
HEMATOCRIT [6]: 33.33%
HEMOGLOBIN [6]: 13.27 G/DL
LEUKOCYTE COUNT [6]: 7.63 x10E3/uL
LYMPHOCYTE [6]: 91.67%
MEAN CORPUSCULAR HEMOGLOBIN [6]: 24.17 pg
